Test results reported in patent publication US11746110B2, “Alkynyl (hetero) aromatic ring compounds used for inhibiting protein kinase activity” (Shenzhen TargetRx, Inc., priority 2018, dated 2023).

What was measured:
Ba/F3 parental cells = assay: Cell proliferation analysis, Ba/F3 parental; type: cell-based; conditions: Mus musculus, BaF3, 72 h; 3 days, CellTiter-Glo, 8 ng/ml IL-3
Procedure: (§1) The inhibitory effect of the example compounds on Ba/F3 parental, Ba/F3 Bcr-Abl^T315I, K562, Ba/F3 KIF5B-RET, BaF3 FLT3-ITD cell activity was determined.
(§2) Materials and reagents: RPMI-1640 medium (GIBCO, Catalog No. A10491-01), fetal bovine serum (GIBCO, Catalog No. 10099141), antibiotics (Penicillin-Streptomycin), IL-3(PeproTech), promycin; cell lines: Ba/F3 parental, Ba/F3 Bcr-Abl^T315I, Ba/F3 KIF5B-RET, BaF3 FLT3-ITD, (purchased from American type culture collection, ATCC), K562 live cell detection kit CellTiter-Glo4(Promega, Catalog No. G7572), 96-well black wall transparent flat bottom cell culture plate (Corning, Catalog No. 3340).
(§3) Test method: 1. Preparation of cell plate: Ba/F3 parental, Ba/F3 Bcr-Abl^T315I K563, Ba/F3 KIFSB-RET, BaF3 FLT3-ITD cells were respectively seeded in 96-well plates, and 8 ng/ml IL-3 was added to the Ba/F3 cells, and the cell plates were placed in a carbon dioxide incubator and cultured overnight. 2. The test compounds were dissolved in DMSO, 9 compound concentrations were made with a 3.16-fold gradient dilution in triplicate. 3. Treatment of the cells with compounds: The compounds were transferred to the cell plate with a starting concentration of 10 μM. The cell plate was placed in a carbon dioxide incubator for 3 days. 4. Detection: CellTiter-Glo agent was added to the cell plate, and incubated at room temperature for 30 minutes to stabilize the luminous signal. PerkinElmer Envision multi-label analyzer was used for reading, wherein A represents IC50≤50 nM, B represents IC50 is 50-100 nM, C represents IC50 is 100-500 nM, D represents IC50 is 500-1000 nM, […].

Ba/F3 BCR-ABL cells = assay: Cell proliferation analysis, Ba/F3 BCR-ABL; type: cell-based; conditions: Mus musculus, BaF3, 72 h; 3 days, CellTiter-Glo
Procedure: [Worded in the source for another variant; this variant is reported under the same test.] as §1, §2, §3

[1] = system: Ba/F3 Bcr-Abl^T315I cells; assay: Cell proliferation analysis, Ba/F3 Bcr-Abl T315I; type: cell-based; conditions: Mus musculus, BaF3, 72 h; 3 days, CellTiter-Glo; read-out: IC50 (nM) Ba/F3 BCR-ABL^T315
Procedure: as §1, §2, §3

Ret = Ret (Homo sapiens (Human), UniProt P07949); assay: Biochemical kinase analysis, Ret; conditions: kinase inhibition assay
Procedure: (§4) Reagents and materials: ABL (ThermoFisher, Cat. No. PV3585), ABL^T315I(Thermo Fisher, Cat. No. PR7429B), Ret (Carna, Cat. No. 08-159-10 ug), RET^V804M, Active (Signalchem, Cat. No. R02-12GG), ATP (Sigma, Cat. No. A7699-1G), DMSO (Sigma, Cat. No. D2650), 96-well plate (Corning, Cat. No. 3365), 384-well plate (Greiner, Cat. No. 784076), buffer solution (Thermo Fisher, Cat. No. PR4876B).
(§5) Compound formulation: The test compounds were dissolved in DMSO to prepare a 20 mM stock solution. Before use, the compounds were diluted in DMSO to 0.1 mM, and diluted into 11 concentrations with a 3-fold gradient. When addition, dilutions of 4-fold final concentration were then made with buffer solution.
(§6) Kinase assay method: After preparing the buffer, the enzyme was mixed with pre-formulated and diluted compounds of different concentrations in duplicate for each concentration, and placed at room temperature for 30 minutes. The corresponding substrate and ATP were added thereto, and reacted at room temperature for 60 minutes (both a negative and a positive control were set). After the reaction, antibody was added for detection, Evnvision detection was carried out after 60 minutes incubation at room temperature, and data was collected. Data analysis and fitting were made according to XLfit5 software.

ABL = ABL (Homo sapiens (Human), UniProt P00519); assay: Biochemical kinase analysis, ABL; conditions: kinase inhibition assay
Procedure: as §4, §5, §6

ABL^T315I = ABL^T315I (Homo sapiens (Human), UniProt P00519, T315I); assay: Biochemical kinase analysis, ABL T315I; conditions: kinase inhibition assay
Procedure: as §4, §5, §6

RET^V804M = RET^V804M (Homo sapiens (Human), UniProt P07949, V804M); assay: Biochemical kinase analysis, RET V804M; conditions: kinase inhibition assay
Procedure: as §4, §5, §6

K562 cells = assay: Cell proliferation analysis, K562; type: cell-based; conditions: Homo sapiens, K562, 72 h; 3 days, CellTiter-Glo
Procedure: as §1, §2, §3

Ba/F3 KIF5B-RET cells = assay: Cell proliferation analysis, Ba/F3 KIF5B-RET; type: cell-based; conditions: Mus musculus, BaF3, 72 h; 3 days, CellTiter-Glo
Procedure: as §1, §2, §3

BaF3 FLT3-ITD cells = assay: Cell proliferation analysis, BaF3 FLT3-ITD; type: cell-based; conditions: Ba/F3 FLT3-ITD, 72 h; 3 days, CellTiter-Glo
Procedure: as §1, §2, §3

Sequence of Ret (P07949 29-1114): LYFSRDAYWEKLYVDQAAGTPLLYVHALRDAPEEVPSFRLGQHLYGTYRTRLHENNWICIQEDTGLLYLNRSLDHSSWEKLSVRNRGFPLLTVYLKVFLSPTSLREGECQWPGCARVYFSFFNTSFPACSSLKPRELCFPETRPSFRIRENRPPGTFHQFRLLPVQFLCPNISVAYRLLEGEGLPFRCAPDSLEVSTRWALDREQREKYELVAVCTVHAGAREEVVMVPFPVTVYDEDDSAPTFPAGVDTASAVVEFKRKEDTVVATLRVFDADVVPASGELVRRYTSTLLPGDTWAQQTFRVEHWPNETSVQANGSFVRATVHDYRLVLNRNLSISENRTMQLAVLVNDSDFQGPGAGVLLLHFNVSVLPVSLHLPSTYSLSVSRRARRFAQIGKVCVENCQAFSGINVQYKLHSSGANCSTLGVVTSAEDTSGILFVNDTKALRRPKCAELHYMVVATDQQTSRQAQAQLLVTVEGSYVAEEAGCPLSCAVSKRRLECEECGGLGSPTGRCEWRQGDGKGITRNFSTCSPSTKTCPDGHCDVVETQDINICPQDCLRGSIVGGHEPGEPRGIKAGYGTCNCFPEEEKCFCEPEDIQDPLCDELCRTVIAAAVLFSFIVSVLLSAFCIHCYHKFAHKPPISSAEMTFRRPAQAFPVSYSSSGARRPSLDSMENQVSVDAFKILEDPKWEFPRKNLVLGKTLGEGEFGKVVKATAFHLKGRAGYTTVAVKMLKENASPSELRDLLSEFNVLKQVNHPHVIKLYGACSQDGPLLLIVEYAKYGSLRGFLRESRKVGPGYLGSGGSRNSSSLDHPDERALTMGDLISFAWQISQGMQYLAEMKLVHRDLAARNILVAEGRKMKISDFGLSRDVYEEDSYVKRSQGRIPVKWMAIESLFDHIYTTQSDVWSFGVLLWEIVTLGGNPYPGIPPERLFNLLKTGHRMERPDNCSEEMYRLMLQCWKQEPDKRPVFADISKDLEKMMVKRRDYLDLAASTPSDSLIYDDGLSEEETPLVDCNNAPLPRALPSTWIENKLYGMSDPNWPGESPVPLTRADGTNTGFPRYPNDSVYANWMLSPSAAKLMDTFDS
Sequence of RET^V804M (P07949 29-1114 V804M): as the sequence (P07949 29-1114) above, with V776M counted along it

Row | SMILES | IC50 (Ba/F3 parental cells) | IC50 (Ba/F3 BCR-ABL cells) | IC50 [1] | IC50 (Ret) | IC50 (ABL) | IC50 (ABL^T315I) | IC50 (RET^V804M) | IC50 (K562 cells) | IC50 (Ba/F3 KIF5B-RET cells) | IC50 (BaF3 FLT3-ITD cells)
1 | Cc1ccc(C(=O)Nc2cccc(C(F)(F)F)c2)cc1C#Cc1cnc2c(Nc3cnn(C)c3)nccn12 [Example 2, 4-methyl-3-((8-((1-methyl-1H-pyrazol-4-yl)amino)imidazo[1,2-a]pyrazin-3-yl)ethynyl)-N-(3-(trifluoromethyl)phenyl)benzamide] | 945 nM | 5.1 nM | 17 nM | 0.32 nM | 6.65 nM | 10.1 nM | 2.69 nM | 0.5 nM | 6.02 nM | 10 nM
2 | Cc1ccc(NC(=O)c2ccnc(C(F)(F)F)c2)cc1C#Cc1cnc2c(Nc3cnn(C)c3)nccn12 [Example 3, N-(4-methyl-3-((8-((1-methyl-1H-pyrazol-4-yl)amino)imidazo[1,2-a]pyrazin-3-yl)ethynyl)phenyl)-2-(trifluoromethyl)isonicotinamide] | 1340 nM | 4.75 nM | 101 nM | 0.25 nM | 1.89 nM | 27.5 nM | 23.1 nM | 0.16 nM | 26.4 nM | 67.7 nM
